Calls of active or inactive are those of the source. No cut-off for these calls is given here.
What was measured:
MOLP-8 = assay: cells; conditions: Homo sapiens, MOLP-8, 48 h
Description: Antiproliferative activity against human MOLP8 cells assessed as inhibition of cell proliferation incubated for 48 hrs by CellTiter Glo luminescence based MTT assay

KMS-12-PE = assay: Antiproliferative activity against human KMS-12-PE cells assessed as inhibition of cell proliferation incubated for 48 hrs by CellTiter Glo luminescence based […]; format: functional
[1] = Cytotoxicity against PBMC (unknown origin) cells assessed as inhibition of cell growth incubated for 48 hrs by CellTiter Glo luminescence based […]; format: toxicity
[2] = biological target: Protein cereblon (Homo sapiens) (UniProt Q96SW2); assay: Binding affinity to human CRBN thalidomide binding domain by microscale thermophoresis analysis
Chain of Protein cereblon (Homo sapiens) (Q96SW2 whole entry, the tested form may be a part): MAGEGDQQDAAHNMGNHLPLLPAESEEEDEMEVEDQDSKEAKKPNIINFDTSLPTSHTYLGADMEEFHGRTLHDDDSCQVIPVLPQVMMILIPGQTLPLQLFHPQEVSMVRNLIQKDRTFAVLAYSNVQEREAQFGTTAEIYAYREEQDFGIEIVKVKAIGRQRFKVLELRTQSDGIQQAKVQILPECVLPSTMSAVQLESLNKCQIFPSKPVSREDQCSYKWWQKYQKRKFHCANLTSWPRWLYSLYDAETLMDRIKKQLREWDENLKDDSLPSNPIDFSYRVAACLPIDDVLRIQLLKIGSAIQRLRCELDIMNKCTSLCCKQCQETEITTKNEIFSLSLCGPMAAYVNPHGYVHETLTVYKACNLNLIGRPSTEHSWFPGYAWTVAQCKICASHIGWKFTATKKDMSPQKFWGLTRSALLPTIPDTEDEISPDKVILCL

| IC50 (MOLP-8) [µM] | Activity [2] | Structure (SMILES) | IC50 (KMS-12-PE) [µM] | IC50 at 48 h [1] [µM] |
| --- | --- | --- | --- | --- |
| 20.5 |  | O=C1CCC(CSc2ccc(Cl)cc2)C(=O)N1 (stereo unspecified) | 16.2 |  |
| 5.52 |  | O=C1CCC(CS(=O)(=O)Cc2ccccc2)C(=O)N1 (stereo unspecified) | 5.17 |  |
| > 100 |  | O=C1CCC(CSCc2ccccc2)C(=O)N1 (stereo unspecified) |  |  |
| > 100 |  | Cn1cnnc1SCC1CCC(=O)NC1=O (stereo unspecified) | > 100 |  |
| 41.2 |  | Nc1cccc(SCC2CCC(=O)NC2=O)c1 (stereo unspecified) | > 90 | > 200 |
| 27.4 |  | CC(=O)Nc1ccccc1SCC1CCC(=O)NC1=O (stereo unspecified) |  |  |
| 49.5 |  | CC(=O)Nc1cccc(SCC2CCC(=O)NC2=O)c1 (stereo unspecified) |  |  |
| 8.43 |  | O=C1CCC(CSc2ccc([N+](=O)[O-])cc2)C(=O)N1 (stereo unspecified) |  |  |
| 38.3 |  | CC(=O)Nc1ccc(SCC2CCC(=O)NC2=O)cc1 (stereo unspecified) |  |  |
| 73.2 |  | COc1ccc(CSCC2CCC(=O)NC2=O)cc1 (stereo unspecified) | > 100 |  |
| 32.3 |  | Nc1ccccc1SCC1CCC(=O)NC1=O (stereo unspecified) | 38.5 | 71.8 |
| 12.8 |  | O=C1CCC(CSc2ccccc2[N+](=O)[O-])C(=O)N1 (stereo unspecified) | 13.3 |  |
| 11.9 |  | Cc1ccnc(SCC2CCC(=O)NC2=O)n1 (stereo unspecified) | 36.8 |  |
| 5.8 |  | O=C1CCC(CS(=O)(=O)c2ccc(F)cc2)C(=O)N1 (stereo unspecified) | 6.45 |  |
| 27.4 |  | O=C1CCC(CSc2ccccn2)C(=O)N1 (stereo unspecified) | 13.3 |  |
| 85.9 | inactive | CN1C(=O)CCC(CSc2ccccc2)C1=O (stereo unspecified) | > 100 |  |
| 18.3 |  | O=C1CCC(CSc2ccc(Br)cc2)C(=O)N1 (stereo unspecified) | 12.9 |  |

| IC50 (MOLP-8) [µM] | Activity [2] | Structure (SMILES) | IC50 (KMS-12-PE) [µM] | IC50 at 48 h [1] [µM] |
| --- | --- | --- | --- | --- |
| 32 |  | O=C1CCC(CSc2ccc(F)cc2)C(=O)N1 (stereo unspecified) | 29.8 |  |
| 6.27 |  | COc1ccc(CS(=O)(=O)CC2CCC(=O)NC2=O)cc1 (stereo unspecified) | 5.88 |  |
| > 75 |  | O=C1CCC(N2C(=O)c3ccccc3C2=O)C(=O)N1 (stereo unspecified) [THALIDOMIDE] | > 75 |  |
| 21 |  | Cc1cc(C)c(SCC2CCC(=O)NC2=O)c(C)c1 (stereo unspecified) | 23.1 |  |
| 23.9 |  | O=C1CCC(CSc2ncccn2)C(=O)N1 (stereo unspecified) | 36.7 |  |
| 44.3 |  | Nc1ccc(SCC2CCC(=O)NC2=O)cc1 (stereo unspecified) | > 90 | > 200 |
| 19.8 |  | COC(=O)c1ccccc1SCC1CCC(=O)NC1=O (stereo unspecified) | 32.6 |  |
| 6.81 |  | O=C1CCC(CS(=O)(=O)c2ccc(Cl)cc2)C(=O)N1 (stereo unspecified) | 5.9 |  |
| > 100 | inactive | O=C1CCC(CSc2ccccc2C(=O)O)C(=O)N1 (stereo unspecified) | > 100 |  |
| 38.1 |  | Cc1ccc(SCC2CCC(=O)NC2=O)cc1 (stereo unspecified) | 40 |  |
| 15.9 |  | O=C1CCC(CSc2cccc([N+](=O)[O-])c2)C(=O)N1 (stereo unspecified) | 13.6 |  |
| 5.72 |  | O=C1CCC(CS(=O)(=O)c2ccccc2)C(=O)N1 (stereo unspecified) | 6 |  |
| 80.8 | inactive | CN1C(=O)CCC(CSc2ccc(Cl)cc2)C1=O (stereo unspecified) | 45.5 |  |
| 40 |  | O=C1CCC(CSc2ccccc2)C(=O)N1 (stereo unspecified) | 36.4 |  |
| > 100 |  | O=C1CCC(SCc2ccccc2)C(=O)N1 (stereo unspecified) |  |  |
| 5.3 |  | Cc1ccc(S(=O)(=O)CC2CCC(=O)NC2=O)cc1 (stereo unspecified) | 6.12 |  |

Reference: ChEMBL document CHEMBL5352463, “Synthesis of novel glutarimide ligands for the E3 ligase substrate receptor Cereblon (CRBN): Investigation of their binding mode and antiproliferative effects against myeloma cell lines” (Eur J Med Chem, 2023)
